Measured values from ChEMBL document CHEMBL4619735, “Design, synthesis and anti-influenza A virus activity of novel 2,4-disubstituted quinazoline derivatives” (Bioorg Med Chem Lett, 2020).
Calls of active or inactive are those of the source. The calls are words filed in the database; no cut-off is given here.

system: Influenza A virus; experiment: Potency index, ratio of ribavirin IC50 to test compound IC50 for antiviral activity against Influenza A virus A/WSN/33(H1N1) infected in human 293T cells pretreated for 2 hrs followed by viral infection and measured after 24 hrs by Gaussia luciferase reporter gene assay; assay type: functional, A/WSN/1933(H1N1), HEK-293T; settings: not given

SMILES | Ratio IC50
CN(C)c1nc(OCC(=O)Nc2ccccc2)c2ccccc2n1 | 4.1

system: Influenza A virus; experiment: Antiviral activity against Influenza A virus A/WSN/33(H1N1) infected in human 293T cells pretreated for 2 hrs followed by viral infection and measured after 24 hrs by Gaussia luciferase reporter gene assay; assay type: functional, organism-based; settings: A/WSN/1933(H1N1), HEK-293T

SMILES | IC50 [µM]
O=C(COc1nc(Cl)nc2ccccc12)NCc1ccccc1 | 26.5
NC(=O)c1ncn([C@@H]2O[C@H](CO)[C@@H](O)[C@H]2O)n1 [RIBAVIRIN] | 15.4
COc1ccc(OC(=O)NCCOc2nc(N3CCCC3)nc3ccccc23)cc1 | 55.3
CN(C)c1nc(OCC(=O)Nc2ccccc2)c2ccccc2n1 | 3.7
O=C(NCCOc1nc(N2CCc3ccccc3C2)nc2ccccc12)c1ccccc1 | 4.19
O=C(NCCOc1nc(Cl)nc2ccccc12)c1ccccc1 | 48
O=C(COc1nc(N2CCc3ccccc3C2)nc2ccccc12)NCc1ccccc1 | 17.7
CCOc1ccccc1CNC(=O)COc1nc(N2CCCC2)nc2ccccc12 | 17.7
O=C(O)COc1nc(N2CCCC2)nc2ccccc12 | 60.1
O=C(NCCOc1nc(N2CCCC2)nc2ccccc12)c1cccs1 | 18.2
O=C(NCCOc1nc(N2CCCC2)nc2ccccc12)c1ccc(C(F)(F)F)cc1 | 8.64
CCOC(=O)COc1nc(N2CCCC2)nc2ccccc12 | 16.6
O=C(COc1nc(N2CCCC2)nc2ccccc12)Nc1nccs1 | 39.4

system: Influenza A virus; experiment: Antiviral activity against Influenza A virus A/WSN/33(H1N1) infected in human 293T cells assessed as inhibition of viral replication at 10 uM pretreated for 2 hrs followed by viral infection and measured after 24 hrs by Gaussia luciferase reporter gene assay; assay type: functional, organism-based; settings: A/WSN/1933(H1N1), HEK-293T

SMILES | inhibition
O=C(COc1nc(N2CCCC2)nc2ccccc12)NC12CC3CC(CC(C3)C1)C2 | inactive
CC(=O)c1ccc(C(=O)NCCOc2nc(N3CCCC3)nc3ccccc23)cc1 | inactive
O=C(NCCOc1nc(N2CCCC2)nc2ccccc12)C1CC1 | Active
O=C(COc1nc(N2CCCC2)nc2ccccc12)NC1CC1 | inactive
O=C(NCCOc1nc(N2CCc3ccccc3C2)nc2ccccc12)c1ccccc1 | Active
CCOc1ccccc1CNC(=O)COc1nc(N2CCCC2)nc2ccccc12 | Active
O=C(NCCOc1nc(N2CCCC2)nc2ccccc12)C1CCCCC1 | inactive
O=C(NCCOc1nc(N2CCCC2)nc2ccccc12)c1ccccc1 | Active
O=C(COc1nc(N2CCCC2)nc2ccccc12)Nc1nccs1 | Active
O=C(COc1nc(N2CCCC2)nc2ccccc12)Nc1ccc2ccccc2c1 | inactive
NCCOc1nc(N2CCCC2)nc2ccccc12 | inactive
